Assay [1] relates to human melanoma cell line HT-144. Description: Antitumor test, human melanoma HT-144 in NMRI nude mice. It is filed as in vivo, mouse. The note with it: 25 mg/kg subcutaneously twice a week. The protocol:
Five- to 6-week-old female NMRI nude mice having a body weight of 22 to 26 g after acclimation were used. The mice were placed in individually ventilated cages (IVC, 4 mice at maximum per cage) which were kept at room temperature and a constant humidity. After randomization, the body weights of the mice were measured every other day, and the behaviors of the animals were recorded every day.
5×10^6 cells of a human melanoma cell line HT-144 (HTB-63) from ATCC were suspended in a solution prepared from 50 uL of PBS and Matrigel (PBS: PAA #H21-002, Matrigel: BD #354230) mixed at a ratio of 1:1, and subcutaneously transplanted to the right side area of the body of each NMRI nude mouse using a 29 G needle.
The measurement of the body weights and the tumor sizes and the measurement and calculation of the tumor volumes were carried out in the same manner as Test Example 6.
At Day 22 when the tumor size reached about 150 mm^3, 80 animals were randomly divided into 8 groups on the basis of their tumor sizes. At the same day, U1-59 or the antibody-drug conjugate (3), (10), or (13) or PBS for a control group were administered into the tail vein of each animal at the following doses.
Administration group: PBS was intravenously injected once a week at the same dose as the antibody-drug conjugate.
Administration group: U1-59 was subcutaneously injected twice a week at 25 mg/kg. […]

The target of a further assay is HER3 (Homo sapiens, UniProt P21860). Put plainly: Reduction in expression of HER3 on cell surface (internalization), flow cytometry in HCC1569. The format is cell-based. Details: host or cells: HCC1569 (human breast cancer cell line). The settings on record: HCC1569, 10 ug/mL, 37 C, 1 hr. The protocol: HER3 internalization by U1-59 and each antibody-drug conjugate was evaluated by flow cytometry. 70,000 living cells of HCC1569 (from ATCC) were suspended in 0.5 mL of RPMI1640 (Invitrogen Corp., #31870-025) (containing 10% FBS (Invitrogen Corp., #10270-106 or PAN Biotech GmbH, #1505-P131304) and 2 mM glutamine (Invitrogen Corp., #25030-024)) and inoculated to each well of a 24-well plate. The cells were cultured for 4 days, and the medium was replaced with 0.5 mL of a fresh medium before the start of the internalization test. 5 ug of the antibody or each antibody-drug conjugate was added to 0.5 mL in each well of the 24-well plate such that the final concentration was 10 ug/mL. The cells were cultured for 1 hour at 37 C in the presence of the antibody or the antibody-drug conjugate. […]
For flow cytometry analysis, the cells were washed once with PBS and dissociated from the plate using 5 mM EDTA (100 uL/well) dissolved in ACCUTASE® SOLUTION (Millipore Corp., SCR005) or PBS. […] The fluorescence signals of living cells were measured using Accuri C6 Flow cytometer. […]
In order to quantify HER3-specific signals, values of cells stained with only the secondary antibody or 7-AAD were subtracted from FL-2 values of cells stained with the primary antibody and the secondary antibody, and further 7-AAD. […]
(Flow cytometry measures light scatter and fluorescence of single cells or particles in a stream.)

Consider “U1-59: anti-HER3 human antibody; heavy and light chain variable regions SEQ ID NOs: 70 and 72; produced per WO 2007/077028”, for which, in assay [1], the “day after transplantation at which group was euthanized because tumor sizes exceeded acceptable maximum level” value was determined as 52 days. Besides, the “reduction in HER3 expression on cell surface” value in the assay with HER3 is given as “about 50%”.
